In patent US11492361B2, “Compounds useful in HIV therapy” (GlaxoSmithKline Intellectual Property Development Limited, priority 2018, dated 2022):
Where a name gives a salt, the structure may show the parent alone. Read-outs that look alike come from different tables or passages of the source.

How the values were obtained:
[1] = tested on: Jurkat HIV-luciferase clones; test: Jurkat latency reversal assay; format: cell-based; conditions: Homo sapiens, Jurkat
Procedure, shortened: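 Three pooled Jurkat HIV-luciferase clones (C16, I15, N6; 5,000 cells/well, maintained with 500 nM EFV) exposed to 3-fold, 14-point titrations (10 μM to 2.1 pM, 0.5% DMSO) in duplicate for 48 h at 37 °C. Luciferase luminescence read; EC50 and maximal % activation versus vehicle from four-parameter logistic fit.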

p100/p52 [2] = test: p100/p52 Western blot (WB) assay; format: cell-based, human; conditions: Homo sapiens
Procedure: Cell cultures were set up to evaluate several SMACm compounds. Frozen PBMC cells from healthy donors were thawed and plated in 2 ml deepwell plates at 2×10^6 cells/ml. Serial dilutions of each compound was carried out as a 7 fold 1:6 dilution with the starting final dose of 1000 nM. Cells were then combined with compound and place at 37° for 24 hrs. The following day cells were pelleted and placed at −80 until lysis.
In preparation for cell lysis, the frozen cell pellets and an aliquot of NP40 Cell Lysis Buffer (Invitrogen, Part #FNN0021), as well as an aliquot of 10× Protease Inhibitor Cocktail (Sigma, Part #P-2714) are thawed on ice. Once thawed, the complete lysis buffer is prepared by adding 10% final volume PI cocktail to the NP40 buffer and then adding in sufficient volume of 0.1 M PMSF (Sigma, Part #93482) and 1 M DTT (Sigma, Part #43816) to create a final concentration of 1 mM each in the complete lysis buffer. Cell lysis is then carried out by resuspending each cell pellet in 30 μL per 10^6 cells then incubating on ice for 30 minutes with vigorous vortexing every 10 minutes. The lysed cells are then centrifuged at 13K RPM for 10 minutes at 4° C. in a refrigerated microcentrifuge. The supernatants (lysates) are then transferred into new microcentrifuge tubes and either stored at −80° or utilized immediately for protein concentration and Western blot analysis.
Protein concentration for each lysate is determined using a detergent compatible Bradford assay (Pierce, Part #23246) following the manufacturer's microplate instructions.
Capillary Western analysis were performed using the ProteinSimple Jess System. A total of 1 ug of cell lysate was prepared according to the provided protocol supplied by ProteinSimple. The primary antibody for p100/p52 (Cell, Signaling #3017) is diluted 1:10 for use in the Jess system. The 12-230 kDa Jess Seperation Module capillary cartridges Separation Module (SM-W004) is used in conjunction with the Anti-Rabbit Secondary NIR conjugate (043-819). The Separation module includes prefilled plates that the samples, primary and secondary antibodies, as well as protein normalization reagent and diluents are loaded onto to perform separation and detection. Once the assay has run, the data is then analyzed utilizing the Compass software provided by ProteinSimple.
Alternatively to capillary electrophoresis, traditional immunoblot assays were carried out, 10 μg of cell lysate was loaded per well into 4-20% Tris-Glycine SDS-PAGE gels. Protein from the SDS-PAGE gels were transferred to Turbo Midi PVDF Transfer Packs (BioRad) using the “Mixed MW” protocol for one Midi Format Gel (constant 2.5 A up to 25V, for 7 minutes) of the Trans-Blot Turbo Transfer System (Bio-Rad) with premade Trans-Blot per the manufacturer's instructions. After transfer, PVDF membranes were blocked in 5% bovine serum albumin (BSA) in 1×TBS (BioRad) with 0.1% Tween-20 for 1 hour at room temperature with gentle rocking. Primary antibodies were added and incubated overnight at 4° C. (anti-p100/p52, Cell Signaling Technology #3017, 1:1000; anti-Actin-HRP conjugate, Abcam #49900, 1:30,000). Following primary staining, the membrane washed three times with 1× Tris Buffered Saline (TBS)+0.1% TWEEN® 20 for 10 minutes each wash. After washing, the membrane was incubated in 5% BSA in 1×TBS+0.1% TWEEN® 20 with the appropriate secondary antibody for 2 hours at room temperature. Following secondary stain the membrane was washed twice for 10 minutes with 1×TBS+0.1% TWEEN® 20 followed by a 10-minute wash with 1×TBS. The membrane was then patted dry with filter paper and an image was captured of the undeveloped membrane on the ChemiDoc MP Imaging System using Image Lab software (BioRad). Sufficient ECL reagent (GE Healthcare) was used to cover the membrane and a series of images were taken starting with 0.001 second and doubling to tripling the exposure time until the luminescence from the developed membrane saturated the image. […]

NFKB2 = test: NFkB2 gene induction; format: cell-based, human; conditions: Homo sapiens, CD4+ T, 24 h, read-out: NFkB2 gene induction EC50 (nM)
Procedure: 5×10^5 normal donor CD4 T cells were treated for 24h with serial dilutions of compounds starting at 1.0 μM at 6 fold, 7 places. Total RNA was isolated using the RNEasy Mini kit (Qiagen) per the manufacturer's instructions. The following TaqMan primer probe sets were sourced from Applied Biosystems: Hs00174517_m1 (NFKB2) and Hs02800695 (HPRT1). TaqMan-based real-time PCR (Fast Virus 1-Step Master Mix, Applied Biosystems) was used to amplify host genes of interest. Gene expression was normalized to HPRT1 and comparative threshold cycle (CT) method (ΔΔCT) was used for relative fold change of gene expression as compared to untreated cells. The data was analyzed by QuantStudio3 Real-Time PCR System.

[3] = tested on: Jurkat HIV-luciferase clones; conditions: background statement; cited from earlier work
p100/p52 [4] = conditions: background statement, primary cells; cited from earlier work
[5] = tested on: cell-associated HIV RNA (HIV gag RNA) in CD4+ T cells; conditions: background statement, primary cells / resting CD4+ T cells; cited from earlier work
[6] = Table 4 summary, read-out: Jurkat EC50
[7] = PBMC, 24 h, read-out: p100/p52 Western Blot (WB) EC50 (nM)

Q: With `CN[C@@H](C)C(=O)N[C@H]1CCS[C@H]2CC(C)(C)[C@@H](C(=O)N[C@H](COCC#CC#CCOC[C@@H](NC(=O)[C@H]3N4C(=O)[C@@H](NC(=O)[C@H](C)NC)CCS[C@H]4CC3(C)C)c3ccccc3)c3ccccc3)N2C1=O` [compound 33, (4S,4′S,7S,7′S,9aS,9a′S)-N,N′-((1S,1′S)-(hexa-2,4-diyne-1,6-diylbis(oxy))bis(1-phenylethane-2,1-diyl))bis(8,8-dimethyl-4-((S)-2-(methylamino)propanamido)-5-oxooctahydropyrrolo[2,1-b][1,3]thiazepine-7-carboxamide) dihydrochloride] as the compound, how does the EC50 ([1]; 48 h) read?
A: Its EC50 is 5.5 nM.

Q: What about the EC50 [1, 6] of the same compound?
A: The EC50 was 5.5 nM.

Q: What about the EC50 (p100/p52 [2]; [7]) of the same compound?
A: The EC50 was 158 nM.

Q: And the EC50 (NFKB2)?
A: Its EC50 is 46 nM.

Q: For `CN[C@@H](C)C(=O)N[C@H]1CCS[C@H]2CC(C)(C)[C@@H](C(=O)N[C@H]3c4ccccc4C[C@H]3OCC#CC#CCO[C@@H]3Cc4ccccc4[C@@H]3NC(=O)[C@H]3N4C(=O)[C@@H](NC(=O)[C@H](C)NC)CCS[C@H]4CC3(C)C)N2C1=O` [compound 13, (4S,4′S,7S,7′S,9aS,9a′S)-N,N′-((1S,1′S,2R,2′R)-(hexa-2,4-diyne-1,6-diylbis(oxy))bis(2,3-dihydro-1H-indene-2,1-diyl))bis(8,8-dimethyl-4-((S)-2-(methylamino)propanamido)-5-oxooctahydropyrrolo[2,1-b][1,3]thiazepine-7-carboxamide) dihydrochloride], which EC50 ([1]; 48 h) is on record?
A: Its EC50 is 9.3 nM.

Q: What about the EC50 [1, 6] of the same compound?
A: Its EC50 is 9.3 nM.

Q: What about the EC50 (p100/p52 [2]; [7]) of the same compound?
A: The EC50 was 12.6 nM.

Q: What about the EC50 (NFKB2) of the same compound?
A: Its EC50 is 73 nM.

Q: What does the source list for `CN[C@@H](C)C(=O)N[C@H]1CCS[C@H]2CC(C)(C)[C@@H](C(=O)N[C@H](COCCCCCCOC[C@@H](NC(=O)[C@H]3N4C(=O)[C@@H](NC(=O)[C@H](C)NC)CCS[C@H]4CC3(C)C)c3ccccc3)c3ccccc3)N2C1=O` [compound 40, (4S,4′S,7S,7′S,9aS,9a′S)-N,N′-((1S,1′S)-(hexane-1,6-diylbis(oxy))bis(1-phenylethane-2,1-diyl))bis(8,8-dimethyl-4-((S)-2-(methylamino)propanamido)-5-oxooctahydropyrrolo[2,1-b][1,3]thiazepine-7-carboxamide) dihydrochloride]?
A: EC50 ([1]; 48 h): 6.1 nM; EC50 [1, 6]: 6.1 nM; EC50 (p100/p52 [2]; [7]): 1 nM; EC50 (NFKB2): 11 nM

Q: Which “potency in cell line assays / Jurkat (HIV latency reversal)” value [3] does the source give for `CC[C@H](NC(=O)[C@H](C)NC)C(=O)N1C[C@@H](O)C[C@H]1Cc1c(-c2[nH]c3cc(F)ccc3c2C[C@@H]2C[C@H](O)CN2C(=O)[C@H](CC)NC(=O)[C@H](C)NC)[nH]c2cc(F)ccc12` [Birinapant TL32711] here?
A: The value was “not potent”.

Q: And the p100-p52 conversion (p100/p52 [4])?
A: The p100-p52 conversion was “not potent”.

Q: And the “HIV caRNA induction” value [5]?
A: Its value is “not potent”.

Q: With `CN[C@@H](C)C(=O)N[C@H]1CCO[C@H]2CC(C)(C)C(C(=O)Nc3ccccc3SSc3ccccc3NC(=O)C3N4C(=O)[C@@H](NC(=O)[C@H](C)NC)CCO[C@H]4CC3(C)C)N2C1=O` (stereo partly drawn) [Formula F, reference compound] as the compound, how does the EC50 ([1]; 48 h, Table 4 summary, read-out: Jurkat EC50) read?
A: The EC50 was about 1000 nM.

Q: What about the EC50 (p100/p52 [2]; PBMC cells from healthy donors, 24 hrs, read-out: p100/p52 Western Blot (WB) EC50) of the same compound?
A: The EC50 was over 1000 nM.

Q: For `CN[C@@H](C)C(=O)N[C@H]1CCS[C@H]2CC(C)(C)[C@@H](C(=O)N[C@H](COCc3ccc(COC[C@@H](NC(=O)[C@H]4N5C(=O)[C@@H](NC(=O)[C@H](C)NC)CCS[C@H]5CC4(C)C)c4ccccc4)cc3)c3ccccc3)N2C1=O` [compound 42, (4S,4′S,7S,7′S,9aS,9a′S)-N,N′-((1S,1′S)-((1,4-phenylenebis(methylene))bis(oxy))bis(1-phenylethane-2,1-diyl))bis(8,8-dimethyl-4-((S)-2-(methylamino)propanamido)-5-oxooctahydropyrrolo[2,1-b][1,3]thiazepine-7-carboxamide) dihydrochloride], which EC50 ([1]; 48 h) is on record?
A: Its EC50 is 6.8 nM.

Q: What about the EC50 [1, 6] of the same compound?
A: Its EC50 is 6.8 nM.

Q: And the EC50 (p100/p52 [2]; [7])?
A: Its EC50 is 3.1 nM.

Q: What about the EC50 (NFKB2) of the same compound?
A: The EC50 was 3.6 nM.

Q: Which EC50 ([1]; 48 h) does the source give for `CN[C@@H](C)C(=O)N[C@H]1CCS[C@H]2CC(C)(C)[C@@H](C(=O)N[C@H]3c4ccccc4C[C@H]3C(=O)NCC#CC#CCNC(=O)[C@@H]3Cc4ccccc4[C@@H]3NC(=O)[C@H]3N4C(=O)[C@@H](NC(=O)[C@H](C)NC)CCS[C@H]4CC3(C)C)N2C1=O` [compound 49, (4S,7S,9aS)-N-[(1R,2R)-2-[(6-{[(1R,2R)-1-[(4S,7S,9aS)-8,8-dimethyl-4-[(2S)-2-(methylamino)propanamido]-5-oxo-octahydropyrrolo[2,1-b][1,3]thiazepine-7-amido]-2,3-dihydro-1H-inden-2-yl]formamido}hexa-2,4-diyn-1-yl)carbamoyl]-2,3-dihydro-1H-inden-1-yl]-8,8-dimethyl-4-[(2S)-2-(methylamino)propanamido]-5-oxo-octahydropyrrolo[2,1-b][1,3]thiazepine-7-carboxamide] here?
A: Its EC50 is 466 nM.

Q: What does the source list for `CN[C@@H](C)C(=O)N[C@H]1CCS[C@H]2CC(C)(C)[C@@H](C(=O)N[C@H]3c4ccccc4C[C@H]3OCCCCCCO[C@@H]3Cc4ccccc4[C@@H]3NC(=O)[C@H]3N4C(=O)[C@@H](NC(=O)[C@H](C)NC)CCS[C@H]4CC3(C)C)N2C1=O` [compound 20, (4S,4′S,7S,7′S,9aS,9a′S)-N,N′-((1S,1′S,2R,2′R)-(hexane-1,6-diylbis(oxy))bis(2,3-dihydro-1H-indene-2,1-diyl))bis(8,8-dimethyl-4-((S)-2-(methylamino)propanamido)-5-oxooctahydropyrrolo[2,1-b][1,3]thiazepine-7-carboxamide)]?
A: EC50 ([1]; 48 h): 11.9 nM; EC50 [1, 6]: 11.9 nM; EC50 (p100/p52 [2]; [7]): 3.1 nM; EC50 (NFKB2): 75 nM

Q: Which EC50 ([1]; 48 h) does the source give for `CN[C@@H](C)C(=S)N[C@H]1CCS[C@H]2CC(C)(C)[C@@H](C(=O)N[C@H](COCCCCCCOC[C@@H](NC(=O)[C@H]3N4C(=O)[C@@H](NC(=S)[C@H](C)NC)CCS[C@H]4CC3(C)C)c3ccccc3)c3ccccc3)N2C1=O` [compound 41, (4S,4′S,7S,7′S,9aS,9a′S)-N,N′-((1S,1′S)-(hexane-1,6-diylbis(oxy))bis(1-phenylethane-2,1-diyl))bis(8,8-dimethyl-4-((S)-2-(methylamino)propanethioamido)-5-oxooctahydropyrrolo[2,1-b][1,3]thiazepine-7-carboxamide) dihydrochloride] here?
A: Its EC50 is 51.6 nM.
